Measured values as given in patent publication US9598387B2 (Southern Research Institute, priority 2012, dated 2017).

How the values were obtained:
[1] = biological target: human D2-long dopamine receptor (Homo sapiens (Human), UniProt P14416); assay: Radioligand binding (125I-IABN competition), D2; conditions: HEK cell membranes expressing human D2-long
Description: (§1) The affinities of the target compounds were determined using radioligand binding experiments. […] Competition curves were modeled for a single site. Data from competition dose-response curves were analyzed using Tablecurve program (Jandel). IC50 values were converted to equilibrium dissociation constants (Ki values) using the Cheng and Prusoff correction.

[2] = biological target: human D3 dopamine receptor (Homo sapiens (Human), UniProt P35462); assay: Radioligand binding (125I-IABN competition), D3; conditions: for Ki: 125I-IABN competition, HEK cell membranes expressing human D3; for D2/D3 (D3 selectivity ratio, D2 Ki/D3 Ki): calculated D2 Ki/D3 Ki
Sequence of human D3 dopamine receptor (P35462 whole entry): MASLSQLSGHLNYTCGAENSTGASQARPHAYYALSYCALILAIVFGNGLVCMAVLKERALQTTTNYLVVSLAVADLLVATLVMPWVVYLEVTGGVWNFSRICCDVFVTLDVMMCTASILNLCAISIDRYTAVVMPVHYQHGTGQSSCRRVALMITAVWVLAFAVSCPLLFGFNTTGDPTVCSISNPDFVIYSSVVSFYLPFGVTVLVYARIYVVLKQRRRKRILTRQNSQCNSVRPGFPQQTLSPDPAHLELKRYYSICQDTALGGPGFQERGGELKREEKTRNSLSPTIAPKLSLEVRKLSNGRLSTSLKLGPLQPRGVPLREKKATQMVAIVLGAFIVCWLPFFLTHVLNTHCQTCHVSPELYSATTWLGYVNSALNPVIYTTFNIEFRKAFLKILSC
Description: as §1

Sequence of human D2-long dopamine receptor (P14416 whole entry): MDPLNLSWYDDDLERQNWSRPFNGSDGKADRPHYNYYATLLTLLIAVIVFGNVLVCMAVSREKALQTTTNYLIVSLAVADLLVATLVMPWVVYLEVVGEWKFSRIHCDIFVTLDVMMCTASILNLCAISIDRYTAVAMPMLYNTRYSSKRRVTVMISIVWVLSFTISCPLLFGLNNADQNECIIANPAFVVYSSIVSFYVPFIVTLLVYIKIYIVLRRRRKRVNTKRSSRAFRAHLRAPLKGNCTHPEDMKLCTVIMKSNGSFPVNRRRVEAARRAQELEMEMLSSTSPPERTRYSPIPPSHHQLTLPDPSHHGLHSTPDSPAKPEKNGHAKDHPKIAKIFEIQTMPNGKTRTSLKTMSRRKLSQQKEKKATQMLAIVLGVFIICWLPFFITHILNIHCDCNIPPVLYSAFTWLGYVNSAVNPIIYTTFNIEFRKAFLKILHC

Question: With `CC(C)(C)c1nc(N2CCN(CCCCNC(=O)N3CCCC(c4ccccc4)CC3)CC2)cc(C(F)(F)F)n1` (centres unmarked) [Compound 82, N-(4-(4-(2-(tert-Butyl)-6-(trifluoromethyl)pyrimidin-4-yl)piperazin-1-yl)butyl)-4-phenylazepane-1-carboxamide] as the molecule, how does the Ki [1] read?
Answer: 668 ± 135 nM

Question: What about the Ki [2] of the same molecule?
Answer: 129 ± 21.9 nM

Question: What about the “D2/D3 (D3 selectivity ratio, D2 Ki/D3 Ki)” value [2] of the same molecule?
Answer: 5

Question: What does the source list for `O=C(NCCCCN1CCN(c2ccnc3cc(C(F)(F)F)ccc23)CC1)N1CCN(c2ccccc2)CC1` [Compound 83, 4-Phenyl-N-(4-(4-(7-(trifluoromethyl)quinolin-4-yl)piperazin-1-yl)butyl)piperazine-1-carboxamide]?
Answer: Ki [1]: 1550 ± 349 nM; Ki [2]: 112 ± 19.1 nM; D2/D3 (D3 selectivity ratio, D2 Ki/D3 Ki) [2]: 14

Question: Which results are given for `O=C(NCCCCN1CCN(c2ccc3ccccc3n2)CC1)N1CCN(c2ccccc2)CC1` [Compound 84, 4-Phenyl-N-(4-(4-(quinolin-2-yl)piperazin-1-yl)butyl)piperazine-1-carboxamide]?
Answer: Ki [1]: 2610 ± 79.1 nM; Ki [2]: 95.7 ± 14.6 nM; D2/D3 (D3 selectivity ratio, D2 Ki/D3 Ki) [2]: 27

Question: For `O=C(NCCCCN1CCN(c2ccnc3cc(Cl)ccc23)CC1)N1CCC(c2ccccc2)CC1` [Compound 85, N-(4-(4-(7-Chloroquinolin-4-yl)piperazin-1-yl)butyl)-4-phenylpiperidine-1-carboxamide], which Ki [1] is on record?
Answer: 2790 ± 942 nM

Question: And the Ki [2]?
Answer: 87.9 ± 22.8 nM

Question: And the “D2/D3 (D3 selectivity ratio, D2 Ki/D3 Ki)” value [2]?
Answer: 32

Question: With `CC(C)(C)c1cc(N2CCN(CCCCNC(=O)N3CCN(c4ccccc4)CC3)CC2)cc(C(C)(C)C)c1` [Compound 86, N-(4-(4-(3,5-Di-tert-butylphenyl)piperazin-1-yl)butyl)-4-phenylpiperazine-1-carboxamide] as the molecule, how does the Ki [1] read?
Answer: 1850 ± 197 nM

Question: What about the Ki [2] of the same molecule?
Answer: 110 ± 11.6 nM

Question: What about the “D2/D3 (D3 selectivity ratio, D2 Ki/D3 Ki)” value [2] of the same molecule?
Answer: 17

Question: What does the source list for `Cc1nnc2n1CCN(C(=O)NCCCCN1CCN(c3cc(C(F)(F)F)nc(C(C)(C)C)n3)CC1)C2` [Compound 87, N-(4-(4-(2-(tert-Butyl)-6-(trifluoromethyl)pyrimidin-4-yl)piperazin-1-yl)butyl)-3-methyl-5,6-dihydro-[1,2,4]triazolo[4,3-a]pyrazine-7(8H)-carboxamide]?
Answer: Ki [1]: 382 ± 91 nM; Ki [2]: 28.3 ± 5.3 nM; D2/D3 (D3 selectivity ratio, D2 Ki/D3 Ki) [2]: 14

Question: Which results are given for `Cc1nc(N2CCN(CCCCNC(=O)N3CCn4c(C)nnc4C3)CC2)cc(C(C)(C)C)n1` [Compound 88, N-(4-(4-(6-(tert-Butyl)-2-methylpyrimidin-4-yl)piperazin-1-yl)butyl)-3-methyl-5,6-dihydro-[1,2,4]triazolo[4,3-a]pyrazine-7(8H)-carboxamide]?
Answer: Ki [1]: 10500 ± 2240 nM; Ki [2]: 668 ± 122 nM; D2/D3 (D3 selectivity ratio, D2 Ki/D3 Ki) [2]: 16

Question: Which Ki [1] does the source give for `CC(C)(C)c1nc(N2CCN(CCCCNC(=O)N3CCc4[nH]c5ccccc5c4C3)CC2)cc(C(F)(F)F)n1` [Compound 89, N-(4-(4-(2-(tert-Butyl)-6-(trifluoromethyl)pyrimidin-4-yl)piperazin-1-yl)butyl)-3,4-dihydro-1H-pyrido[4,3-b]indole-2(5H)-carboxamide] here?
Answer: 1180 ± 180 nM

Question: And the Ki [2]?
Answer: 110 ± 21.6 nM

Question: What about the “D2/D3 (D3 selectivity ratio, D2 Ki/D3 Ki)” value [2] of the same molecule?
Answer: 11

Question: What does the source list for `Cc1ccc2[nH]c3c(c2c1)CN(C(=O)NCCCCN1CCN(c2cc(C(F)(F)F)nc(C(C)(C)C)n2)CC1)CC3` [Compound 90, N-(4-(4-(2-(tert-Butyl)-6-(trifluoromethyl)pyrimidin-4-yl)piperazin-1-yl)butyl)-8-methyl-3,4-dihydro-1H-pyrido[4,3-b]indole-2(5H)-carboxamide]?
Answer: Ki [1]: 1340 ± 166 nM; Ki [2]: 128 ± 30.3 nM; D2/D3 (D3 selectivity ratio, D2 Ki/D3 Ki) [2]: 10

Question: Which Ki [1] does the source give for `CC(C)(C)c1nc(N2CCN(CCCCNC(=O)N3CCc4[nH]c5ccc(Cl)cc5c4C3)CC2)cc(C(F)(F)F)n1` [Compound 91, N-(4-(4-(2-(tert-Butyl)-6-(trifluoromethyl)pyrimidin-4-yl)piperazin-1-yl)butyl)-8-chloro-3,4-dihydro-1H-pyrido[4,3-b]indole-2(5H)-carboxamide] here?
Answer: 1210 ± 211 nM

Question: What about the Ki [2] of the same molecule?
Answer: 200 ± 47.6 nM

Question: And the “D2/D3 (D3 selectivity ratio, D2 Ki/D3 Ki)” value [2]?
Answer: 6

Question: Which results are given for `COc1ccc2[nH]c3c(c2c1)CN(C(=O)NCCCCN1CCN(c2cc(C(F)(F)F)nc(C(C)(C)C)n2)CC1)CC3` [Compound 92, N-(4-(4-(2-(tert-Butyl)-6-(trifluoromethyl)pyrimidin-4-yl)piperazin-1-yl)butyl)-8-methoxy-3,4-dihydro-1H-pyrido[4,3-b]indole-2(5H)-carboxamide]?
Answer: Ki [1]: 1350 ± 241 nM; Ki [2]: 166 ± 4.1 nM; D2/D3 (D3 selectivity ratio, D2 Ki/D3 Ki) [2]: 8

Question: For `CC(C)(C)c1nc(N2CCN(CCCCNC(=O)N3CCc4[nH]c5ccc(C(F)(F)F)cc5c4C3)CC2)cc(C(F)(F)F)n1` [Compound 93, N-(4-(4-(2-(tert-Butyl)-6-(trifluoromethyl)pyrimidin-4-yl)piperazin-1-yl)butyl)-8-(trifluoromethyl)-3,4-dihydro-1H-pyrido[4,3-b]indole-2(5H)-carboxamide], which Ki [1] is on record?
Answer: 560 ± 53 nM

Question: And the Ki [2]?
Answer: 84.8 ± 21.3 nM

Question: And the “D2/D3 (D3 selectivity ratio, D2 Ki/D3 Ki)” value [2]?
Answer: 7

Question: Which Ki [1] does the source give for `Cc1ccc2[nH]c3c(c2c1)CN(C(=O)NCCCCN1CCN(c2cc(C(C)(C)C)nc(C)n2)CC1)CC3` [Compound 94, N-(4-(4-(6-(tert-Butyl)-2-methylpyrimidin-4-yl)piperazin-1-yl)butyl)-8-methyl-3,4-dihydro-1H-pyrido[4,3-b]indole-2(5H)-carboxamide] here?
Answer: 5480 ± 1150 nM

Question: What about the Ki [2] of the same molecule?
Answer: 219 ± 23.8 nM

Question: And the “D2/D3 (D3 selectivity ratio, D2 Ki/D3 Ki)” value [2]?
Answer: 25

Question: Which results are given for `Cc1nc(N2CCN(CCCCNC(=O)N3CCc4[nH]c5ccc(Cl)cc5c4C3)CC2)cc(C(C)(C)C)n1` [Compound 95, N-(4-(4-(6-(tert-Butyl)-2-methylpyrimidin-4-yl)piperazin-1-yl)butyl)-8-chloro-3,4-dihydro-1H-pyrido[4,3-b]indole-2(5H)-carboxamide]?
Answer: Ki [1]: 5560 ± 1340 nM; Ki [2]: 215 ± 45.5 nM; D2/D3 (D3 selectivity ratio, D2 Ki/D3 Ki) [2]: 26

Question: What does the source list for `COc1ccc2[nH]c3c(c2c1)CN(C(=O)NCCCCN1CCN(c2cc(C(C)(C)C)nc(C)n2)CC1)CC3` [Compound 96, N-(4-(4-(6-(tert-Butyl)-2-methylpyrimidin-4-yl)piperazin-1-yl)butyl)-8-methoxy-3,4-dihydro-1H-pyrido[4,3-b]indole-2(5H)-carboxamide]?
Answer: Ki [1]: > 5000 nM; Ki [2]: 74.9 ± 15 nM; D2/D3 (D3 selectivity ratio, D2 Ki/D3 Ki) [2]: >66

Question: Which results are given for `CC(C)(C)c1cc(N2CCN(CCCCNC(=O)N3CCc4[nH]c5ccccc5c4C3)CC2)cc(C(C)(C)C)c1` [Compound 97, N-(4-(4-(3,5-Di-tert-butylphenyl)piperazin-1-yl)butyl)-3,4-dihydro-1H-pyrido[4,3-b]indole-2(5H)-carboxamide]?
Answer: Ki [1]: 2440 ± 175 nM; Ki [2]: 245 ± 46.4 nM; D2/D3 (D3 selectivity ratio, D2 Ki/D3 Ki) [2]: 10

Question: For `Cc1nc(N2CCN(CCCCNC(=O)N3CCc4[nH]c5ccc(C(F)(F)F)cc5c4C3)CC2)cc(C(C)(C)C)n1` [Compound 98, N-(4-(4-(6-(tert-Butyl)-2-methylpyrimidin-4-yl)piperazin-1-yl)butyl)-8-(trifluoromethyl)-3,4-dihydro-1H-pyrido[4,3-b]indole-2(5H)-carboxamide], which Ki [1] is on record?
Answer: 6400 ± 1100 nM

Question: And the Ki [2]?
Answer: 1020 ± 201 nM

Question: And the “D2/D3 (D3 selectivity ratio, D2 Ki/D3 Ki)” value [2]?
Answer: 6

Question: For `O=C(NCCCCN1CCN(c2cc(C(F)(F)F)nc3ccccc23)CC1)N1CCN(c2ccccc2)CC1` [Compound 99, 4-Phenyl-N-(4-(4-(2-(trifluoromethyl)quinolin-4-yl)piperazin-1-yl)butyl)piperazine-1-carboxamide], which Ki [1] is on record?
Answer: 7250 ± 754 nM

Question: What about the Ki [2] of the same molecule?
Answer: 299 ± 37.8 nM

Question: And the “D2/D3 (D3 selectivity ratio, D2 Ki/D3 Ki)” value [2]?
Answer: 24

Question: Which results are given for `O=C(NCCCCN1CCN(c2cc(C(F)(F)F)nc3ccccc23)CC1)N1CCC(c2ccccc2)CC1` [Compound 100, 4-Phenyl-N-(4-(4-(2-(trifluoromethyl)quinolin-4-yl)piperazin-1-yl)butyl)piperidine-1-carboxamide]?
Answer: Ki [1]: > 100000 nM; Ki [2]: 5320 ± 2220 nM; D2/D3 (D3 selectivity ratio, D2 Ki/D3 Ki) [2]: >18

Question: Which results are given for `CC(C)(C)c1nc(N2CCN(CCCCNC(=O)N3CCN(c4ccccc4)C(=O)C3)CC2)cc(C(F)(F)F)n1` [Compound 102, N-(4-(4-(2-(tert-Butyl)-6-(trifluoromethyl)pyrimidin-4-yl)piperazin-1-yl)butyl)-3-oxo-4-phenylpiperazine-1-carboxamide]?
Answer: Ki [1]: 962 nM; Ki [2]: 19.2 nM; D2/D3 (D3 selectivity ratio, D2 Ki/D3 Ki) [2]: 50

Question: Which Ki [1] does the source give for `O=C(NCCCCN1CCN(c2ccnc3cc(Cl)ccc23)CC1)C1CCC(c2ccccc2)CC1` (centres unmarked) [Compound 105, N-(4-(4-(7-Chloroquinolin-4-yl)piperazin-1-yl)butyl)-4-phenylcyclohexanecarboxamide] here?
Answer: 1020 ± 68.2 nM

Question: And the Ki [2]?
Answer: 34.5 ± 7.6 nM

Question: What about the “D2/D3 (D3 selectivity ratio, D2 Ki/D3 Ki)” value [2] of the same molecule?
Answer: 29

Question: How did the Ki [1] turn out when `O=C(NCCCCN1CCN(c2ccc3ccccc3n2)CC1)C1CCC(c2ccccc2)CC1` (centres unmarked) [Compound 106, 4-Phenyl-N-(4-(4-(quinolin-2-yl)piperazin-1-yl)butyl)cyclohexanecarboxamide] was run?
Answer: 3090 ± 768 nM

Question: And the Ki [2]?
Answer: 62 ± 12.7 nM

Question: What about the “D2/D3 (D3 selectivity ratio, D2 Ki/D3 Ki)” value [2] of the same molecule?
Answer: 50

Question: How did the Ki [1] turn out when `Cc1cc(N2CCN(CCCCNC(=O)C3CCN(c4ccc(C(F)(F)F)cn4)CC3)CC2)nc(C(C)(C)C)n1` [Compound 107, N-(4-(4-(2-(tert-Butyl)-6-methylpyrimidin-4-yl)piperazin-1-yl)butyl)-1-(5-(trifluoromethyl)pyridin-2-yl)piperidine-4-carboxamide] was run?
Answer: 970 ± 137 nM

Question: And the Ki [2]?
Answer: 30.6 ± 7.4 nM

Question: And the “D2/D3 (D3 selectivity ratio, D2 Ki/D3 Ki)” value [2]?
Answer: 32

Question: `CC(C)(C)c1nc(N2CCN(CCCCNC(=O)C3CCN(Cc4ccccc4)CC3)CC2)cc(C(F)(F)F)n1` [Compound 109, 1-Benzyl-N-(4-(4-(2-(tert-butyl)-6-(trifluoromethyl)pyrimidin-4-yl)piperazin-1-yl)butyl)piperidine-4-carboxamide] was tested. Which Ki [1] did it give?
Answer: 337 nM

Question: And the Ki [2]?
Answer: 35.6 ± 1.4 nM

Question: For `CC(C)(C)c1nc(N2CCN(CCCCNC(=O)C3CCN(c4ccc(C(F)(F)F)cn4)CC3)CC2)cc(C(F)(F)F)n1` [Compound 110, N-(4-(4-(2-(tert-Butyl)-6-(trifluoromethyl)pyrimidin-4-yl)piperazin-1-yl)butyl)-1-(5-(trifluoromethyl)pyridin-2-yl)piperidine-4-carboxamide], which Ki [1] is on record?
Answer: 1800 ± 257 nM

Question: What about the Ki [2] of the same molecule?
Answer: 167 ± 8.5 nM

Question: And the “D2/D3 (D3 selectivity ratio, D2 Ki/D3 Ki)” value [2]?
Answer: 11
